Laboratory results from patent publication US9492465B2, “Gold(I) complexes with t-butyl phosphine and dialkyl dithiocarbamate ligands” (KING FAHD UNIVERSITY OF PETROLEUM AND MINERALS, priority 2014, dated 2016).

Experiments:
Assay type in all cases: cell-based
[1] = tested on: A549 (human lung carcinoma) cell line; assay: in vitro cytotoxicity, MTT assay, A549 cell line; settings: 24 h exposure, read-out: IC50 Values against A549
Method: (§1) The cells were seeded at 4×10^3 cells/well in 100 μL DMEM (Dulbecco's Modified Eagle's Medium) containing 10%. FBS (Fetal Bovine Serum) in 96-wells tissue culture plate and incubated for 72 h at 37° C., 5% CO2 in air and 90% relative humidity in CO2 incubator. […] The medium of wells was discarded and 100 μL DMEM containing MTT (3-(4,5-Dimethylthiazol-2-Yl)-2,5-Diphenyltetrazolium Bromide) (5 mg/mL) was added to the wells and incubated in CO2 incubator at 37° C. in dark for 4 h. After incubation, a purple colored formazan (artificial chromogenic dye, product of the reduction of water insoluble tetrazolium salts e.g., MMT by dehydrogenases and reductases) in the cells is produced and appeared as dark crystals in the bottom of the wells. The medium of culture was discarded from each well carefully to avoid disruption of monolayer and 100 μL of Dimethylsufoxide (DMSO) was added in each well. The solution was thoroughly mixed in the wells to dissolve the formazan crystals which ultimately result into a purple solution. The absorbance of the 96-wells plate was taken at 570 nm with Labsystems Multiskan EX-Enzyme-linked immunosorbent assay (EX-ELISA) reader against a reagent blank.
(§2) The in vitro cytotoxicity tests were evaluated for the gold(I) precursor, labeled as (0) and two synthesized complexes labeled as (1) and (2)against three human cancer cell lines, MCF7, HeLa and A549 using MTT assay.

[2] = tested on: HeLa (human cervical cancer) cell line; assay: in vitro cytotoxicity, MTT assay, HeLa cell line; settings: for cytotoxic effects on HeLa cell line compared with Auranofin: 50 μg/mL concentration; for IC50: HeLa cell line, 24 h exposure, read-out: IC50 Values against HeLa; for IC50 / percent viability of HeLa: MTT; for percent viability of HeLa: 24 h
Method: as §1, §2

[3] = tested on: MCF7 (human breast cancer) cell line; assay: in vitro cytotoxicity, MTT assay, MCF7 cell line; settings: 24 h exposure, read-out: IC50 Values against MCF7
Method: Metal precursor and two synthesized compound (1)and compound (2) were evaluated for their in-vitro cytotoxic activity against MCF7 (human breast cancer), HeLa (human cervical cancer) and A549 (human lung carcinoma) cell lines.
The cells were seeded at 4×10^3 cells/well in 100 μL DMEM (Dulbecco's Modified Eagle's Medium) containing 10%. FBS (Fetal Bovine Serum) in 96-wells tissue culture plate and incubated for 72 h at 37° C., 5% CO2 in air and 90% relative humidity in CO2 incubator. After incubation, 100 μL of complex (0),(1)and (2) (50, 25, 12.5, 6.25 and 3.12 μg/mL), prepared in DMEM, was added to cells and the cultures were incubated for 24 h. The medium of wells was discarded and 100 μL DMEM containing MTT (3-(4,5-Dimethylthiazol-2-Yl)-2,5-Diphenyltetrazolium Bromide) (5 mg/mL) was added to the wells and incubated in CO2 incubator at 37° C. in dark for 4 h. After incubation, a purple colored formazan (artificial chromogenic dye, product of the reduction of water insoluble tetrazolium salts e.g., MMT by dehydrogenases and reductases) in the cells is produced and appeared as dark crystals in the bottom of the wells. The medium of culture was discarded from each well carefully to avoid disruption of monolayer and 100 μL of Dimethylsufoxide (DMSO) was added in each well. The solution was thoroughly mixed in the wells to dissolve the formazan crystals which ultimately result into a purple solution. The absorbance of the 96-wells plate was taken at 570 nm with Labsystems Multiskan EX-Enzyme-linked immunosorbent assay (EX-ELISA) reader against a reagent blank.
The in vitro cytotoxicity tests were evaluated for the gold(I) precursor, labeled as (0) and two synthesized complexes labeled as (1) and (2)against three human cancer cell lines, MCF7, HeLa and A549 using MTT assay. The dose dependent cytotoxic effect was obtained by the stipulated increase in concentrations of complexes (0), (1) and (2) against the fixed number of human cancer cells. […] FIG. 3 is a graph of the in vitro cytotoxic effect of series of concentrations of compound (0) on MCF7 cell line. […]

[4] = concentration 3.12 (title μM, head iM)
[5] = concentration 6.25 (title μM, head iM)
[6] = concentration 12.5 (title μM, head iM)
[7] = concentration 25 (title μM, head iM)
[8] = concentration 50 (title μM, head iM)

Row | Structure (SMILES) | IC50 [1] | cytotoxic effects on HeLa cell line compared with Auranofin [2] | IC50 [2] | percent viability of HeLa [2, 4] | percent viability of HeLa [2, 5] | percent viability of HeLa [2, 6] | percent viability of HeLa [2, 7] | percent viability of HeLa [2, 8] | IC50 [3]
1 | CN(C)C(=S)[S][Au][PH](C(C)(C)C)(C(C)(C)C)C(C)(C)C [Complex (1), [Au{P(t-Bu)3}(S2CN(CH3)2)]] | 26.9 µM | better than Auranofin | 2.07 µM | 50.6 ± 1.5% | 34.4 ± 0.9% | 19.5 ± 1.4% | 15.3 ± 1.1% | 8.7 ± 1.2% | 21.1 µM
2 | CCN(CC)C(=S)[S][Au][PH](C(C)(C)C)(C(C)(C)C)C(C)(C)C [Complex (2), [Au{P(t-Bu)3}(S2CN(C2H5)2)]] | 19.4 µM | better than Auranofin | 3.21 µM | 53.9 ± 1.9% | 38.6 ± 1.2% | 27.9 ± 1.0% | 22.9 ± 1.2% | 9.41 ± 1.16% | 16 µM
3 | CC(C)(C)P(C(C)(C)C)C(C)(C)C.[Cl][Au] [Complex (0), [Au{P(t-Bu)3}(Cl)], reference compound] | 14.3 µM |  | 16 µM | 93.6 ± 2.4% | 89.5 ± 2.3% | 81.9 ± 1.9% | 27.3 ± 1.5% | 12.4 ± 1.1% | 16.7 µM
